# Measured values taken from article PMC6628435, “Chemical Synthesis, Proper Folding, Nav Channel Selectivity Profile and Analgesic Properties of the Spider Peptide Phlotoxin 1” (Toxins, 2019).
# Bridge positions count the residues as written; N and C are the ends. Peptide text beside a SMILES is read from it.
# What was measured:
# Nav1.7/β1 = molecular target: T1, Nav1.7/β1 (Rattus norvegicus, UniProt O08562); test: Two-electrode voltage-clamp on Xenopus laevis oocytes expressing Nav1.7/β1; assay type: cell-based
# T1 construct: expressed in transfected cells; host or cells: Xenopus laevis oocytes injected with cRNA
# Nav1.2/β1 = test: Two-electrode voltage-clamp on Xenopus laevis oocytes expressing Nav1.2/β1; assay type: cell-based; details: 1 µM; voltage of maximum sodium influx, holding −90 mV; oocytes TEVC; n ≥ 3
# Text: Using the two-electrode voltage-clamp technique on Xenopus laevis oocytes, the effect of PhlTx1 was also compared on eight different cloned vertebrate Nav channels co-expressed with the β1 subunit (Nav1.1-1.8/β1) and on the neuronal insect Nav channel, para, co-expressed with the tipE subunit (Figure 3 and Figure 4). […] Normalized current-voltage relationships (I-V curve) of Nav1.2/β1 and Nav1.3/β1 channels seemed to be shifted towards more negative potentials when PhlTx1 was applied, but shifts were not statistically significant […] (Figure 4). The activation phase of the other studied Nav channel subtypes was not affected. No obvious alteration in channel availability was observed, except a 5-mV negative shift for Nav1.3/β1, although that was also non-significant (p > 0.05).
# Figure 4 1 µM of PhlTx1 was tested on Nav1.1/β1, Nav1.2/β1, Nav1.3/β1, Nav1.4/β1, Nav1.5/β1, Nav1.6/β1, Nav1.8/β1 and para/tipE (n ≥ 3). Left column: current traces were evoked by a 50-ms depolarization to the voltage of maximum sodium influx, depending on the Nav studied, from a holding potential of −90 mV. At 1 µM PhlTx1, all studied Nav channels, except Nav1.4/β1, were blocked for about 10% (no toxin: *). The current of Nav1.4/β1 was reduced for about 35 ± 5%. Middle column: normalized I-V curves reveal no significant shift of the activation voltage (p > 0.05). […]
# T1 sequence (O08562 whole entry): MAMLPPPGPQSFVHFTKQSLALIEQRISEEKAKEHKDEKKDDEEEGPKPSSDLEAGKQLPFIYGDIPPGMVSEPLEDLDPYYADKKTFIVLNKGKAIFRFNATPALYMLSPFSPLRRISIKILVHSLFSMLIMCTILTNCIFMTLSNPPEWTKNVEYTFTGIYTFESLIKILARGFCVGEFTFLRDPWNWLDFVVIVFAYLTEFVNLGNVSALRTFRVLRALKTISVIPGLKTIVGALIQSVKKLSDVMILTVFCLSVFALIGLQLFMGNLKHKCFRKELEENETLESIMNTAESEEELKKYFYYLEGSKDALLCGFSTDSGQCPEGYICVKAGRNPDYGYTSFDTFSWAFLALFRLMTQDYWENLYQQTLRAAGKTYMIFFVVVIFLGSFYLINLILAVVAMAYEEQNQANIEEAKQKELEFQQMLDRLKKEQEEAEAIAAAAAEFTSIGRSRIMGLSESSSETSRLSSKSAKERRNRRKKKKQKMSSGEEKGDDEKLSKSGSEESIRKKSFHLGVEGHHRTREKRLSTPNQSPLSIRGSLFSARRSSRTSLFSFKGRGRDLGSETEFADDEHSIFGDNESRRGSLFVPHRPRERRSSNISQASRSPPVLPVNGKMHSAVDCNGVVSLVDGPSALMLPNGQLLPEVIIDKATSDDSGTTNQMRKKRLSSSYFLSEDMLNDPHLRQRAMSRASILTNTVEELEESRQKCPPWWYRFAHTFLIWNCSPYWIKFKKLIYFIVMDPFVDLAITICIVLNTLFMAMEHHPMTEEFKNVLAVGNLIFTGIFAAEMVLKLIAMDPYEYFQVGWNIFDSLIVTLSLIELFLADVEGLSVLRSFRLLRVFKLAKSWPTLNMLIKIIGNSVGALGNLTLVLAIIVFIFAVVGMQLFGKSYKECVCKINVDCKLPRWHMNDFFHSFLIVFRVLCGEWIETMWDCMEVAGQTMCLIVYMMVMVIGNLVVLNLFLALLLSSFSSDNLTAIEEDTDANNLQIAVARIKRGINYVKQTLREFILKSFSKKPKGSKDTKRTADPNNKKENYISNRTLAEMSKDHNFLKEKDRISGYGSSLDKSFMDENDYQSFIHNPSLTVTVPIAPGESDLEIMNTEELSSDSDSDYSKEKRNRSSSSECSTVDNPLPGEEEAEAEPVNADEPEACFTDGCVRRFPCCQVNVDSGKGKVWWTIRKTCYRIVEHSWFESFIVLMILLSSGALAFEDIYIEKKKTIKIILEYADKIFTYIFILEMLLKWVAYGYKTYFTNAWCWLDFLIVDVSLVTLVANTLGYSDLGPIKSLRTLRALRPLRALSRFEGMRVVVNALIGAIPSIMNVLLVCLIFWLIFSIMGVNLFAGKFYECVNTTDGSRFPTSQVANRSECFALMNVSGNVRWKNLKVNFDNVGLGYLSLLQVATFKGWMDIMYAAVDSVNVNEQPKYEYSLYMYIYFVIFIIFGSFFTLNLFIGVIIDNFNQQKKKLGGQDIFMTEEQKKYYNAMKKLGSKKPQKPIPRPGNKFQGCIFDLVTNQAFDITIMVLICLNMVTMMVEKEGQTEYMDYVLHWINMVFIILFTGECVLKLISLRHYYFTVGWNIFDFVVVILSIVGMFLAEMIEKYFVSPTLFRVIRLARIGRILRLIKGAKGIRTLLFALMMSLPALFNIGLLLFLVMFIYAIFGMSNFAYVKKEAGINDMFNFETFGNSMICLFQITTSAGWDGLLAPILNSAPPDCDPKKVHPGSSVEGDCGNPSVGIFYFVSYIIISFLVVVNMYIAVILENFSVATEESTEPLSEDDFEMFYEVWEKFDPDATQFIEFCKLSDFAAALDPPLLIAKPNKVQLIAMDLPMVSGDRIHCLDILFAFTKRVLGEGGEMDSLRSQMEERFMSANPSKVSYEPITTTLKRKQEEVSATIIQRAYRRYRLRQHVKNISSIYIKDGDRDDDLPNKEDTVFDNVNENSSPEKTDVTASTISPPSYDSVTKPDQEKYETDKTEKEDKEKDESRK
# T1 sequence (Q00954 19-218 partner): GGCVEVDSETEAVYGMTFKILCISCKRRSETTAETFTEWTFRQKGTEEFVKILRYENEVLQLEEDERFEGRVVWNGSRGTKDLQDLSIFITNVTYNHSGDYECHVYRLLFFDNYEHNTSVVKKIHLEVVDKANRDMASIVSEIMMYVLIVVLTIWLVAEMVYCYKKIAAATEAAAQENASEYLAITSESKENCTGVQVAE
smiles,measurement,setting,value
"CC(C)C[C@@H]1NC(=O)[C@@H](NC(=O)[C@H](C)N)CSSC[C@@H]2NC(=O)[C@@H]3CSSC[C@@H](C(=O)N[C@@H](CCCNC(=N)N)C(=O)N[C@@H](Cc4ccc(O)cc4)C(=O)N[C@@H](CCCCN)C(=O)N[C@@H](CC(C)C)C(=O)N[C@@H](Cc4ccccc4)C(=O)O)NC(=O)[C@H](Cc4c[nH]c5ccccc45)NC(=O)[C@@H]4CCCN4C(=O)[C@H](Cc4ccc(O)cc4)NC(=O)[C@H](CCCCN)NC(=O)[C@H](Cc4c[nH]c5ccccc45)NC(=O)[C@H](CCC(=O)O)NC(=O)[C@H](CSSC[C@H](NC(=O)[C@H](CO)NC(=O)[C@H](CC(=O)O)NC(=O)[C@H](Cc4c[nH]c5ccccc45)NC(=O)[C@H](CCC(N)=O)NC(=O)CNC1=O)C(=O)N[C@@H](CC(=O)O)C(=O)N1CCC[C@H]1C(=O)N[C@@H](CCCCN)C(=O)N[C@@H](C)C(=O)N[C@@H](CO)C(=O)N[C@@H](CCCCN)C(=O)N3)NC(=O)[C@H](C)NC(=O)[C@H](Cc1ccc(O)cc1)NC(=O)[C@H](CC(N)=O)NC(=O)[C@@H]1CCCN1C2=O [PhlTx1, Phlotoxin-1] (H-ACLGQWDSCDPKASKCCPNYACEWKYPWCRYKLF-OH; disulfide 2-17, 9-22, 16-29; N-terminus and C-terminus assumed)",inhibition at 1 µM,"Nav1.7/β1; 1 µM, holding −90 mV, oocytes TEVC, clone rPN1, read-out: inhibition of inward currents",90 ± 7%
same,IC50,"Nav1.7/β1; Xenopus laevis oocytes, stimulus frequency 0.3 Hz, Hill equation fit, n = 4, 0.1% BSA",260 ± 46 nM
same,Hill coefficient,"Nav1.7/β1; Xenopus laevis oocytes, stimulus frequency 0.3 Hz, n = 4",1.3
same,block of sodium current,Nav1.2/β1,about 10%
